# Measurements published in patent US7906334B2, “Method for reproducing conifers by somatic embryogenesis using lactose as a carbon source” (Cellfor Inc., priority 2003, dated 2011).
# Assays:
# [1] = system: Loblolly pine megagametophytes containing immature zygotic embryos; assay: Effect of carbon source on induction of loblolly pine; type: cell-based, Pinus taeda (loblolly pine)
# Method: Female gametophytes containing the immature zygotic embryos were used as explants. The cones were surface sterilized in 10% bleach solution for 15 min. They were rinsed 3 times with sterile water, air dried and stored in polyethylene bags at 4° C. until used. Seeds were sterilized in 3% hydrogen peroxide containing 0.1% Tween 20 and rinsed in sterile deionized water. Megagametophytes containing the immature embryos were plated on TX medium (Table A) supplemented with 2.2 mg/l 2,4-D, 1 mg/l BA and 0.3% Phytagel and containing either 1% sucrose, or 1.5% lactose and 0.025% glucose.
# Cultures were maintained on the two media by subculturing the embryogenic tissue every 10 to 14 days to fresh media. All cultures were incubated at 23° C. in the dark.
# [2] = system: loblolly pine embryogenic tissue; assay: Effect of carbon source on solid maintenance of loblolly pine; type: cell-based, Pinus taeda (loblolly pine); settings: semi-solid TX medium; 1% sucrose, or 1.5% lactose and 0.025% glucose
# Method: Tissue induced on sucrose from Example 1 was further maintained on the semi-solid TX medium containing 1% sucrose, and tissue induced on lactose was maintained on semi-solid TX medium containing 1.5% lactose and 0.025% glucose. The tissue morphology of the lines induced on lactose was different from the ones induced on sucrose. […] In order to further increase the proliferation rate, 0.5% sucrose was added to the TX 1.5% lactose-containing medium in place of 0.025% glucose. This medium provided a reasonable bulk-up rate, and growth of embryos was more synchronized than in the 1% sucrose medium.
# [3] = system: Suspension cultures of loblolly lines LP1, LP2, LP3, LP4 and LP5; assay: Effect of carbon source on liquid maintenance: growth rate and yield of somatic embryos; type: cell-based, Pinus taeda (loblolly pine); settings: 1% sucrose
# Method: Suspension cultures of loblolly lines LP1, LP2, LP3, LP4 and LP5 were started with 2 g of tissue introduced to 50 ml of TX liquid medium containing different sugars—1% sucrose, 1.5% maltose, or 1.5% lactose. These cultures were maintained in the same liquid media for 2 weeks by weekly transfers to fresh maintenance medium containing the above sugars. Then, 2 g of tissue produced in each maintenance medium was transferred to prematuration media I, containing the same carbon source as the maintenance media. After one week, 1.5 g of tissue from each prematuration medium I was transferred to prematuration media II containing the same sugars. After the 4 week period in liquid media, early stage somatic embryos were collected and plated on ½ LV maturation medium containing 120 μM ABA and 6.0% sucrose and 1% Phytagel. Eight to ten weeks later, mature somatic embryos were counted and treatments were evaluated based on the number of somatic embryos per gram fresh weight (SE/g FW). Table 2 summarises the tissue yield at the end of the 4-week period and the number of mature somatic embryos produced for each line.
# [4] = system: loblolly pine lines LP2, LP3 and LP4; assay: Effect of lactose during the prematuration steps; type: cell-based, Pinus taeda (loblolly pine); settings: 1% sucrose maintenance
# Method: Prematuration for loblolly pine may be performed in two steps: • 1. Prematuration I requires reduction of hormones either by reducing the auxin and cytokinin concentrations to optimally about 1/20 of the concentration of proliferation step, or by adding charcoal at about 0.01 to 1%, or a combination of both. • 2. Prematuration II follows prematuration I and requires an addition of ABA at concentrations of about 5 to 120 μM, preferably 90 μM and no auxin and cytokinins.
# In order to further understand the effect of lactose on somatic embryo development, liquid maintenance cultures were started in TX medium containing 1% sucrose as in Example 3. Three lines were used in this experiment, LP2, LP3 and LP4. After the proliferation step, 2 g of the tissue was transferred for one week to prematuration medium I containing different concentrations of lactose—1.5%, 3% and 6%. After that, 1.5 g of tissue produced in the lactose-containing media was further cultured for a week in prematuration medium II containing the same amount of lactose. 3.
# [5] = system: loblolly pine lines LP1 and LP3; assay: Effect of galactose and galactose-containing sugars during proliferation and prematuration on SE yield; type: cell-based, Pinus taeda (loblolly pine); design: Amount of tissue at the end of the preculture II stage: unit not given here; settings: for # SE/g FW / Amount of tissue at the end of the preculture II stage: 1% sucrose, 1.5% maltose, 1.5% lactose or 0.75% galactose
# Method: The finding that loblolly pine cultures were capable of utilising galactose is unique. In order to further investigate these phenomenon two lines, LP1 and LP3, were cultured on semi-solid TX medium containing 1.0% lactose and 0.5% sucrose. Cultures were maintained by subculturing the embryogenic tissue every 10 to 14 days to fresh media. All cultures were incubated at 23° C. in the dark. Suspension cultures were initiated as described in Example 3, however, TX medium was supplemented with either 1% sucrose, 1.5% maltose, 1.5% lactose, or 0.75% galactose. These cultures were maintained in liquid media for 4 weeks by weekly transfers to fresh maintenance or prematuration media. After the 4˜week period, 1 ml of the liquid medium containing 0.1 g of tissue consisting of early stage somatic embryos was plated on each […] plates containing ½ LV maturation medium. This medium contained 120 μM ABA and 6.0% sucrose and 1% Phytagel. Eight to ten weeks later, mature somatic embryos were counted and treatments were evaluated based on the number of somatic embryos per gram fresh weight (Table 5).
# [6] = system: Douglas fir embryogenic tissue, cell line DF-2; assay: Effects of carbohydrates on liquid maintenance of Douglas fir embryogenic tissue; type: cell-based, Pseudotsuga menziesii (Douglas fir); settings: 3 weeks suspension maintenance/bulking-up, 0.5% galactose, 1% lactose, 0.5% mannitol
# Method: The culture medium for Douglas fir was TX medium (see Table A) with the following additives: glutamine 100 mg., Casein hydrolysate 100 mg., and pH 5.8. The following compounds were added into the basal medium for Douglas fir somatic embryo development at different stages: • 1) Induction medium: 18 μM 2,4-D and 9 μM BA, phytagel 0.28%, sucrose 1% • 2) Solid maintenance medium: 9 μM 2,4-D and 4.5 μM BA, phytagel 0.28%, sucrose 1%. • 3) Liquid maintenance and bulking-up medium: 9 μM 2,4-D and 4.5 μM BA, different carbon sources for experiments. • 4) Liquid pre-treatment medium: 20 (first week) or 30 μM ABA (second week), 10% PEG4000 (first week) or PEG1500 (second week), different carbon sources as described in examples below. • 5) Solid maturation media: TX (Table A) plus 0.02% NH4NO3 • Medium I. 40 μM ABA, 10% PEG 1500, maltose 2.5%, phytagel 0.6% • Medium II. 60 μM ABA, 10% PEG1500, maltose 2.5% and sucrose 1%, phytagel 0.8% • Medium III. 70 μM ABA, 6% PEG1500, sucrose 6%, phytagel 1%.
# Embryogenic tissue was induced from immature zygotic embryos. The cones and seeds were surface-sterilised as described for pines, and embryos were dissected out from megagametophytes. The embryos, with the attachment of suspensors to their megagametophytes, were placed on the surface of induction medium. The culture was kept in darkness at 23° C. Embryogenic tissue was sub-cultured once every two weeks onto solid maintenance medium.
# Embryogenic tissue of Douglas fir was collected from solid maintenance culture and one gram of tissue was transferred into a 200 ml flask containing 50 ml TX (see Table A) liquid maintenance medium. The liquid maintenance medium was supplied with different sugars (Table 8).
# The tissue was drained, weighed and sub-cultured once per week. During a culture period of three weeks, the highest tissue growth was found in the culture with glucose as the major carbon source. The media containing sucrose, maltose and galactose also supported a fast tissue growth. With these latter sugars, tissue increased to 68 to 100 fold in three weeks. Tissue grew little in the media containing lactose or mannitol. […] Similar results were obtained within two cell lines, DF-7A and DF-2.
# [7] = system: Douglas fir embryogenic tissue; assay: Medium osmolarity before and after one-week tissue inoculation; type: cell-based, Pseudotsuga menziesii (Douglas fir); settings: medium with 0.5% galactose, 1% lactose, 0.5% mannitol or 0.5% glucose
# Excerpt: More change of medium osmolarity occurred during week 2 than week 1. The medium osmolarity changed little when lactose or mannitol was used in the media.
# [8] = then 1.5% lactose in prematuration I and II
# [9] = then 3% lactose in prematuration I and II
# [10] = then 6% lactose in prematuration I and II
smiles,measurement,setting,value
OC[C@H]1O[C@@H](O[C@H]2[C@H](O)[C@@H](O)C(O)O[C@@H]2CO)[C@H](O)[C@@H](O)[C@H]1O (stereo partly drawn) [Lactose],"Induction success, lactose medium compared with sucrose medium",[1],greater than three times higher
same,tissue morphology,[2],more early-stage immature embryos and a limited amount of suspensor type of surrounding tissue
same,# SE/g FW ± sd,"[3]; 1.5% maltose or 1.5% lactose for 4 weeks in liquid, then 8-10 weeks on 1/2 LV maturation medium",393 ± 10 SE/g FW
same,Average amount of tissue produced after 4 weeks in liquid (FW g),"[3]; 1.5% maltose or 1.5% lactose in maintenance and prematuration I and II, started with 2 g",18.63 g
same,Mean # SE/g FW ± sd,[4]; [8],106 ± 9 SE/g FW
same,Mean grams FW at the end of prematuration stage,[4]; [8],121.90 g
same,Mean # SE/g FW ± sd,[4]; [9],209 ± 7 SE/g FW
same,Mean grams FW at the end of prematuration stage,[4]; [9],216.47 g
same,Mean # SE/g FW ± sd,[4]; [10],169 ± 10 SE/g FW
same,Mean grams FW at the end of prematuration stage,[4]; [10],149.13 g
same,embryos produced,"[5]; line LP1, as stated in the text",over 1000 embryos
same,# SE/g FW,[5]; line LP1,1060 ± 17 SE/g FW
same,Amount of tissue at the end of the preculture II stage,[5]; line LP1,28.9
same,# SE/g FW,[5]; line LP3,110 ± 7 SE/g FW
same,Amount of tissue at the end of the preculture II stage,[5]; line LP3,8.78
same,"Tissue growth (fold, mean ± SD)","[6]; additional glucose 0%, 0.5% glucose, 1% sucrose, 1% maltose",1.40 ± 0.14 fold
same,"Tissue growth (fold, mean ± SD)",[6]; additional glucose 0.025%,2.75 ± 0.24 fold
same,"Osmolarity before inoculation (mmol/kg, mean ± SD)",[7],93.33 ± 0.58 mmol/kg
